Broadly, the IC50 is the concentration needed to halve the response being measured. A high value points to weaker potency.

We go through 16 compounds from patent publication US6815546B2, “Analogues of camptothecin, their use as medicaments and the pharmaceutical compositions containing them” (Societe de Recherches et d'Applications Scientifiques …, priority 1995, dated 2004).

Assay [1] has as its system Adenocarcinoma HT29 cells from the human colon. Nature of the assay: Adenocarcinoma HT29 cell proliferation, WST1 (compounds in DMA). Type of assay: cell-based. Conditions: final DMA 0.1% (v/v). How it is done:
c. Adenocarcinoma HT29 cells from the human colon are cultured in a single layer at 37° in a humidified atmosphere containing 95% of air and 5% of CO2, in a modified essential Earle's medium at 4.5 g/l (Gibco, Paisley, United Kingdom); completed with 10% of inactivated foetal calf serum, 2 mM of glutamine, and 50 μg/ml of gentamycin (Gibco, Paisley, United Kingdom).
Approximately 2000 cells are seeded with the culture medium above in the wells of a microplate (96 wells, flat-bottomed) and incubated for 24 hours. Solutions in N,N-dimethyl-acetamide (DMA) of each of the examples of the invention, diluted in the culture medium so that the final concentration of DMA is 0.1% (v/v), are added to the plate cultures in order to obtain final concentration ranges from 1×10^−13 to 1×10^−5 M, and the cells are incubated for 72 hours.
The WST1 staining reagent, (Boehringer Mannheim, Germany) is then added to each well at a final concentration of 9%, and the cells are incubated for 2 hours at 37° C. This stage allows the mitochondrial deshydrogenase of the living cells to convert WST1 orange tetrazolium salt into crimson formazan. The resulting stained solutions are quantified by dual-beam detection ([…]) using a multi-cuvette scanning spectrophotometer.
The results shown in the following table III C) are expressed in terms of inhibitory concentration at 50% (IC50, in nM), accompanied by a confidence interval.
(Tetrazolium assays rely on reduction of a dye to a coloured formazan, in cell work by metabolically active cells.)

For assay [2], the target named is T1, DNA topoisomerase 1 of purified calf thymus (Bos taurus, UniProt F1MN93).
T1 construct: DNA topoisomerase 1 of purified calf thymus (Gibco-BRL, Paisley, United Kingdom); purchased Gibco-BRL, Paisley, United Kingdom; host or cells: calf thymus tissue
T1 sequence (F1MN93 1-767): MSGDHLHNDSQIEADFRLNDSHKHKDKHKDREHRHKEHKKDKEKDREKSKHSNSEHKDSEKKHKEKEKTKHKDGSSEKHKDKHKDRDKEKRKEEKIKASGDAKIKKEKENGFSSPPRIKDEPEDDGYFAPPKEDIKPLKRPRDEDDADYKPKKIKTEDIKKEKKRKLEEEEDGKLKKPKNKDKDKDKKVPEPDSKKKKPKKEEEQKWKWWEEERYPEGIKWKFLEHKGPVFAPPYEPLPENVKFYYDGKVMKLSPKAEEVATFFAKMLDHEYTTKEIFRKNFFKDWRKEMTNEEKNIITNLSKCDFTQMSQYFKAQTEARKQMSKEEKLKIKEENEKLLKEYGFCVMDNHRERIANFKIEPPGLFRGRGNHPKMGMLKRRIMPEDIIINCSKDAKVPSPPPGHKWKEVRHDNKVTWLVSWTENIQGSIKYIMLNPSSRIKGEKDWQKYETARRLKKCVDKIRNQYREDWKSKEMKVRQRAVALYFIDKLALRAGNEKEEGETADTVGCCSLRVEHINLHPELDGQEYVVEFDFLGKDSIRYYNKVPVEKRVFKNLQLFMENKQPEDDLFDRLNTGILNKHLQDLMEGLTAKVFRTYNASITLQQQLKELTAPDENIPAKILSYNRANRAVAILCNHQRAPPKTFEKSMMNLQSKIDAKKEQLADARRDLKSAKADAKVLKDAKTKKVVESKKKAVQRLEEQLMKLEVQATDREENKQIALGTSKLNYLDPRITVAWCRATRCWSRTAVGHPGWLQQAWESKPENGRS
As to the kind of experiment: Relaxation activity test of DNA induced by topoisomerase 1. Type of assay: biochemical. Conditions: supercoiled pUC19, 15 minutes at 37° C. How it is done: 1. Relaxation Activity Test of DNA Induced by Topoisomerase 1
All the reactions are carried out in a 20 μl reaction buffer constituted by 50 mM of Tris-HCl (pH 7.5), 50 mM of KCl, 0.5 mM of dithiothreitol, 10 mM of MgCl2, 0.1 mM of ethyldiamine tetraacetic acid (EDTA), 30 μg/ml of bovine serum albumin and 300 ng of supercoiled pUC19 (Pharmacia Biotech, Orsay, France) with or without the compounds to be tested at defined concentrations. All the compounds to be tested are initially dissolved in dimethylsulphoxide (DMSO) at 50 mM, the other dilutions being carried out with distilled water. […] The reaction is initiated by the addition of a unit of DNA topoisomerase 1 of purified calf thymus (Gibco-BRL, Paisley, United Kingdom) and is carried out for 15 minutes at 37° C. The reactions are stopped by the addition of 3 μl of a mixture containing 1% dodecyl sodium sulphate at 1%, 20 mM of EDTA and 500 μg/ml of K proteinase (Boehringer Mannheim, Meylan, France). After an additional incubation period of 30 minutes at 37° C., 2 μl of a loading buffer containing 10 mM of Na2HPO4, 0.3% of bromophenol blue et 16% Ficoll are added to samples which are subjected to electrophoresis in agarose gels at 1.2% at 1 V/cm for 20 hours in a buffer containing 36 mM of Tris-HCl at pH 7.8, 30 mM of Na2HPO4, 1 mM of EDTA and 2 μg/ml of chloroquine. The gels are stained with 2 μg/ml of ethidium bromide, photographed under UV light at 312 nm with a camera and the fluorescent intensity is measured with a bioProfil camera (Vilber Lournat, Lyon, France) with a view to determining the percentage of relaxed DNA. Each experiment is carried out at least three times in duplicate.
In each experiment, the supercoiled plasmid DNA is incubated alone or with topoisomerase 1. The reaction is completed within 15 minutes. For each compound to be tested or control, the supercoiled plasmid DNA is incubated in the presence of 500 μM of compound to be tested with enzyme or without enzyme plus the compound to be tested, at concentrations of 10 μM, 100 μM, 200 μM and 500 μM.

Consider `CCCCc1c2c(nc3ccccc13)-c1cc3c(c(=O)n1C2)COC(=O)C[C@]3(O)CC` [Example 87, (5R)-12-butyl-5-ethyl-5-hydroxy-4,5,13,15-tetrahydro-1H,3H-oxepino[3′,4′:6,7]indolizino[1,2-b]quinoline-3,15-dione], for which the IC50 in assay [1] (Homo sapiens, HT-29, 72 hours) was determined as 16 nM.

Compound `CC[C@@]1(O)CC(=O)OCc2c1cc1n(c2=O)Cc2c-1nc1cc(F)c(F)cc1c2-c1ccccc1` [Example 93, (5R)-5-ethyl-9,10-difluoro-5-hydroxy-12-phenyl-4,5,13,15-tetrahydro-1H,3H-oxepino[3′,4′:6,7]indolizino[1,2-b]quinoline-3,15-dione] gave a half-inhibitory concentration (IC50) in assay [1] (Homo sapiens, HT-29, 72 hours) of 12 nM. This IC50 and that of the compound before are within 1.5-fold of each other.

Compound `CC[C@@]1(O)CC(=O)OCc2c1cc1n(c2=O)Cc2cc3c(F)cc(F)cc3nc2-1` [Example 100, (5R)-5-ethyl-9,11-difluoro-5-hydroxy-4,5,13,15-tetrahydro-1H,3H-oxepino[3′,4′:6,7]indolizino[1,2-b]quinoline-3,15-dione] showed a 50% inhibitory concentration (IC50) in assay [1] (Homo sapiens, HT-29, 72 hours) of 2.2 nM.

The compound `CCCc1c2c(nc3cc(F)cc(F)c13)-c1cc3c(c(=O)n1C2)COC(=O)C[C@]3(O)CC` [Example 169, (5R)-5-ethyl-9,11-difluoro-5-hydroxy-12-propyl-4,5,13,15-tetrahydro-1H,3H-oxepino[3′,4′:6,7]indolizino[1,2-b]quinoleine-3,15-dione] gave an IC50 in assay [1] (72 hours) of 2.3 nM. That is a single-digit nanomolar value.

In turn, `CC[C@@]1(O)CC(=O)OCc2c1cc1n(c2=O)Cc2c-1nc1cc(F)ccc1c2CC(C)C` [Example 162, (5R)-5-ethyl-9-fluoro-5-hydroxy-12-isobutyl-4,5,13,15-tetrahydro-1H,3H-oxepino[3′,4′:6,7]indolizino[1,2-b]quinoleine-3,15-dione] displayed an IC50 in assay [1] (72 hours) of 12 nM.

For `CCC1(O)CC(=O)OCc2c1cc1n(c2=O)Cc2cc3c4c(ccc3nc2-1)OCN(C)C4` (stereo not drawn) [Example 77, 9-ethyl-9-hydroxy-2-methyl-1,2,3,9,10,16-hexahydro-13H-[1,3]oxazino[5,6f]oxepino[3′,4′:6,7]indolizino[1,2-b]quinoline-11,14-dione], the “PERCENTAGE OF RELAXED DNA” value in assay [2] (10 μM compound) was determined as 86.2%; in assay [2] (100 μM compound), 35.1%; in assay [2] (200 μM compound), 32.1%.

For the compound `CC[C@@]1(O)CC(=O)OCc2c1cc1n(c2=O)Cc2c-1nc1cc(F)ccc1c2-c1ccc(OC(F)(F)F)cc1` [Example 166, (5R)-5-ethyl-9-fluoro-5-hydroxy-12-(4-trifluoromethoxyphenyl)-4,5,13,15-tetrahydro-1H,3H-oxepino[3′,4′:6,7]indolizino[1,2-b]quinoleine-3,15-dione], half-maximal inhibition in assay [1] (72 hours) (IC50) was put at 8.9 nM.

Turning to `CC[C@@]1(O)CC(=O)OCc2c1cc1n(c2=O)Cc2c-1nc1cc(F)c(F)cc1c2CC[Si](C)(C)C` [Example 99, (5R)-5-ethyl-9,10-difluoro-5-hydroxy-1 2-(2-trimethylsilylethyl)-4,5,13,15-tetrahydro-1H,3H-oxepino[3′,4′:6,7]indolizino[1,2-b]quinoline-3,15-dione], in assay [1] (Homo sapiens, HT-29, 72 hours), the concentration for half-maximal inhibition (IC50) is 5 nM.

`CCOCCc1c2c(nc3cc(F)cc(F)c13)-c1cc3c(c(=O)n1C2)COC(=O)C[C@]3(O)CC` [Example 170, (5R)-12-(2-ethoxyethyl)-5-ethyl-9,11-difluoro-5-hydroxy-4,5,13,15-tetrahydro-1H,3H-oxepino[3′,4′:6,7]indolizino[1,2-b]quinoleine-3,15-dione]: the half-maximal inhibitory concentration (IC50) in assay [1] (72 hours) turned out to be 0.85 nM.

Regarding `CCCc1c2c(nc3cc(F)c(F)cc13)-c1cc3c(c(=O)n1C2)COC(=O)C[C@]3(O)CC` [Example 97, (5R)-5-ethyl-9,10-difluoro-5-hydroxy-12-propyl-4,5,13,15-tetrahydro-1H,3H-oxepino[3′,4′:6,7]indolizino[1,2-b]quinoline-3,15-dione], the IC50 in assay [1] (Homo sapiens, HT-29, 72 hours) was found to be 11 nM.

`CCc1c2c(nc3cc(F)c(F)cc13)-c1cc3c(c(=O)n1C2)COC(=O)C[C@]3(O)CC` [Example 98, (5R)-5,12-diethyl-9,10-difluoro-5-hydroxy-4,5,13,15-tetrahydro-1H,3H-oxepino[3′,4′:6,7]indolizino[1,2-b]quinoline-3,15-dione] registered an IC50 in assay [1] (Homo sapiens, HT-29, 72 hours) of 2.1 nM.

For the compound `CCC1(O)CC(=O)OCc2c1cc1n(c2=O)Cc2cc3c4c(c(F)cc3nc2-1)OCN(Cc1ccccc1)C4` (stereo not drawn) [Example 79, 2-benzyl-9-ethyl-5-fluoro-9-hydroxy-1,2,3,9,10,16-hexahydro-13H-[1,3]oxazino[5,6f]oxepino[3′,4′:6,7]indolizino[1,2-b]quinoline-11,14-dione], the “PERCENTAGE OF RELAXED DNA” value in assay [2] (10 μM compound) turned out to be 55.6%; in assay [2] (100 μM compound), 38.9%; in assay [2] (200 μM compound) it was 30.0%.

`CC[C@@]1(O)CC(=O)OCc2c1cc1n(c2=O)Cc2c-1nc1cc(F)ccc1c2CCc1ccccc1` [Example 140, (5R)-5-ethyl-9-fluoro-5-hydroxy-12-phenethyl-4,5,13,15-tetrahydro-1H,3H-oxepino[3′,4′:6,7]indolizino[1,2-b]quinoline-3,15-dione] gave an IC50 in assay [1] (Homo sapiens, HT-29, 72 hours) of 3.2 nM.

With `CCC1(O)CC(=O)OCc2c1cc1n(c2=O)Cc2cc3c4c(ccc3nc2-1)OCN(Cc1ccccc1)C4` (stereo not drawn) [Example 78, 2-benzyl-9-ethyl-9-hydroxy-1,2,3,9,10,16-hexahydro-13H-[1,3]oxazino[5,6f]oxepino[3′,4′:6,7]indolizino[1,2-b]quinoline-11,14-dione], the entries for the “PERCENTAGE OF RELAXED DNA” value in assay [2] (10 μM compound), in assay [2] (100 μM compound) and in assay [2] (200 μM compound) were 56.2%, 28.0% and 24.2%, respectively.

With `CCN1COc2ccc3nc4c(cc3c2C1)Cn1c-4cc2c(c1=O)COC(=O)CC2(O)CC` (stereo not drawn) [Example 76, 2,9-diethyl-9-hydroxy-1,2,3,9,10,16-hexahydro-13H-[1,3]oxazino[5,6-f]oxepino[3′,4′:6,7]indolizino[1,2-b]quinoline-11,14-dione], the “PERCENTAGE OF RELAXED DNA” value worked out at 79.7% in assay [2] (10 μM compound), 33.5% in assay [2] (100 μM compound) and 23.2% in assay [2] (200 μM compound).

As to `CCOC(=O)CC(O)(CC)c1cc2n(c(=O)c1CO)Cc1cc3ccccc3nc1-2` (stereo not drawn) [Example 2, ethyl 3-hydroxy-3-[8-(hydroxymethyl)-9-oxo-9,11-dihydroindolizino [1,2-b]quinolin-7-yl]pentanoate], the “PERCENTAGE OF RELAXED DNA” value stood at 97.9% in assay [2] (10 μM compound), 78.3% in assay [2] (100 μM compound), 73.2% in assay [2] (200 μM compound) and 51.1% in assay [2] (500 μM compound).
